Laboratory results reported in PubChem BioAssay AID1919014 (Molecular Pharmacology Branch, DTP, NCI, 2023).
“And” between values parts separate entries of the source, which are not always exact repeats. Equal values may be shown once.

Test system: NCI-H1341 complex spheroids, percent test/control
Assay: Anticancer human tumor NCI-H1341 cell line growth inhibition [AhR];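 note: spheroids exposed to agents for seven days before readout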
Conditions: for viability, T/C: stronger effect = lower value; active = viability on the fitted dose curve at most 10% of control; inactive = the rest
Method in brief: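 Spheroids combined tumor cells with HUVEC endothelial cells and human MSCs as stroma. AhR antagonists were paired with standard or investigational drugs, each dosed in half-log steps down from near clinical Cmax, or from 10 microM where Cmax was unknown.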

[1] = curve of first compound, second compound 0.1 µM
[2] = curve of first compound, second compound 0.316 µM
[3] = curve of first compound, second compound 1 µM
[4] = curve of first compound, second compound 3.16 µM
[5] = curve of first compound, second compound 10 µM
[6] = second compound 0.1 µM, first compound 0.00316 µM
[7] = second compound 0.1 µM, first compound 0.01 µM
[8] = second compound 0.1 µM, first compound 0.0316 µM
[9] = second compound 0.1 µM, first compound 0.1 µM
[10] = second compound 0.1 µM, first compound 0.316 µM
[11] = second compound 0.1 µM, first compound 1 µM
[12] = second compound 0.316 µM, first compound 0.00316 µM
[13] = second compound 0.316 µM, first compound 0.01 µM
[14] = second compound 0.316 µM, first compound 0.0316 µM
[15] = second compound 0.316 µM, first compound 0.1 µM
[16] = second compound 0.316 µM, first compound 0.316 µM
[17] = second compound 0.316 µM, first compound 1 µM
[18] = second compound 1 µM, first compound 0.00316 µM
[19] = second compound 1 µM, first compound 0.01 µM
[20] = second compound 1 µM, first compound 0.0316 µM
[21] = second compound 1 µM, first compound 0.1 µM
[22] = second compound 1 µM, first compound 0.316 µM
[23] = second compound 1 µM, first compound 1 µM
[24] = second compound 3.16 µM, first compound 0.00316 µM
[25] = second compound 3.16 µM, first compound 0.01 µM
[26] = second compound 3.16 µM, first compound 0.0316 µM
[27] = second compound 3.16 µM, first compound 0.1 µM
[28] = second compound 3.16 µM, first compound 0.316 µM
[29] = second compound 3.16 µM, first compound 1 µM
[30] = second compound 10 µM, first compound 0.00316 µM
[31] = second compound 10 µM, first compound 0.01 µM
[32] = second compound 10 µM, first compound 0.0316 µM
[33] = second compound 10 µM, first compound 0.1 µM
[34] = second compound 10 µM, first compound 0.316 µM
[35] = second compound 10 µM, first compound 1 µM
[36] = second compound 0.1 µM, first compound 3.16 µM
[37] = second compound 0.1 µM, first compound 10 µM
[38] = second compound 0.316 µM, first compound 3.16 µM
[39] = second compound 0.316 µM, first compound 10 µM
[40] = second compound 1 µM, first compound 3.16 µM
[41] = second compound 1 µM, first compound 10 µM
[42] = second compound 3.16 µM, first compound 3.16 µM
[43] = second compound 3.16 µM, first compound 10 µM
[44] = second compound 10 µM, first compound 3.16 µM
[45] = second compound 10 µM, first compound 10 µM

Nc1ncn(C2CC(O)C(CO)O2)c(=O)n1 (centres undefined) + Cc1ccccc1N=Nc1ccc(NC(=O)c2ccnn2C)c(C)c1
135 nM: IC50 [5]
763 nM: IC50 [4]
> 1000 nM: IC50 [1] | IC50 [2] | IC50 [3]
inactive: viability, T/C [6] 102% | viability, T/C [7] 103% | viability, T/C [8] 84.1% | viability, T/C [9] 63.7% | viability, T/C [10] 59.6% | viability, T/C [11] 51% | viability, T/C [12] 102% | viability, T/C [13] 101% | viability, T/C [14] 100% | viability, T/C [15] 79.2% | viability, T/C [16] 53.8% | viability, T/C [17] 51% | viability, T/C [18] 100% | viability, T/C [19] 97% | viability, T/C [20] 81% | viability, T/C [21] 60.2% | viability, T/C [22] 63% | viability, T/C [23] 54.5% | viability, T/C [24] 81.4% | viability, T/C [25] 77% | viability, T/C [26] 68.5% | viability, T/C [27] 61.8% | viability, T/C [28] 53.1% | viability, T/C [29] 49.7% | viability, T/C [30] 70.6% | viability, T/C [31] 54.9% | viability, T/C [32] 61.8% | viability, T/C [33] 49.9% | viability, T/C [34] 47.8% | viability, T/C [35] 42.1%

CC(C)c1c(-c2ccccc2)nc2c(C#N)c[nH]n2c1=O + CC(CO)NC(=O)c1cc(-c2ccc(Cl)cc2)nn(-c2cnn(C)c2)c1=O
inactive: viability, T/C [8] 85.4% | viability, T/C [9] 89.8% | viability, T/C [10] 78.7% | viability, T/C [11] 82.6% | viability, T/C [36] 101% | viability, T/C [37] 88.4% | viability, T/C [14] 86.8% | viability, T/C [15] 95.6% | viability, T/C [16] 93% | viability, T/C [17] 100% | viability, T/C [38] 86.5% | viability, T/C [39] 73% | viability, T/C [20] 96.1% | viability, T/C [21] 91.2% | viability, T/C [22] 95.6% | viability, T/C [23] 94.5% | viability, T/C [40] 76.2% | viability, T/C [41] 69.5% | viability, T/C [26] 84.5% | viability, T/C [27] 99.2% | viability, T/C [28] 106% | viability, T/C [29] 81.8% | viability, T/C [42] 64.5% | viability, T/C [43] 79.1% | viability, T/C [32] 86.2% | viability, T/C [33] 74.4% | viability, T/C [34] 74.2% | viability, T/C [35] 71.6% | viability, T/C [44] 70.9% | viability, T/C [45] 59.8%
> 10000 nM: IC50 [1] | IC50 [2] | IC50 [3] | IC50 [4] | IC50 [5]

Nc1ncn(C2CC(O)C(CO)S2)c(=O)n1 (centres undefined) + Cc1ccccc1N=Nc1ccc(NC(=O)c2ccnn2C)c(C)c1
17.4 nM: IC50 [5]
236 nM: IC50 [4]
281 nM: IC50 [2]
263 nM: IC50 [3]
inactive: viability, T/C (second compound 0.1 µM, first compound 0.000949 µM) 71.8% | viability, T/C (second compound 0.1 µM, first compound 0.003 µM) 84.3% | viability, T/C (second compound 0.1 µM, first compound 0.00949 µM) 83.3% | viability, T/C (second compound 0.1 µM, first compound 0.03 µM) 65% | viability, T/C (second compound 0.1 µM, first compound 0.0949 µM) 61.3% | viability, T/C (second compound 0.1 µM, first compound 0.3 µM) 40% | viability, T/C (second compound 0.316 µM, first compound 0.000949 µM) 78.8% | viability, T/C (second compound 0.316 µM, first compound 0.003 µM) 95% | viability, T/C (second compound 0.316 µM, first compound 0.00949 µM) 93.2% | viability, T/C (second compound 0.316 µM, first compound 0.03 µM) 87.7% | viability, T/C (second compound 0.316 µM, first compound 0.0949 µM) 78% | viability, T/C (second compound 0.316 µM, first compound 0.3 µM) 48.1% | viability, T/C (second compound 1 µM, first compound 0.000949 µM) 78.2% | viability, T/C (second compound 1 µM, first compound 0.003 µM) 85.8% | viability, T/C (second compound 1 µM, first compound 0.00949 µM) 84.9% | viability, T/C (second compound 1 µM, first compound 0.03 µM) 81.3% | viability, T/C (second compound 1 µM, first compound 0.0949 µM) 74.1% | viability, T/C (second compound 1 µM, first compound 0.3 µM) 46.8% | viability, T/C (second compound 3.16 µM, first compound 0.000949 µM) 88% | viability, T/C (second compound 3.16 µM, first compound 0.003 µM) 62.4% | viability, T/C (second compound 3.16 µM, first compound 0.00949 µM) 66% | viability, T/C (second compound 3.16 µM, first compound 0.03 µM) 69.6% | viability, T/C (second compound 3.16 µM, first compound 0.0949 µM) 62.6% | viability, T/C (second compound 3.16 µM, first compound 0.3 µM) 43.8% | viability, T/C (second compound 10 µM, first compound 0.000949 µM) 51.4% | viability, T/C (second compound 10 µM, first compound 0.003 µM) 54.6% | viability, T/C (second compound 10 µM, first compound 0.00949 µM) 53% | viability, T/C (second compound 10 µM, first compound 0.03 µM) 45.8% | viability, T/C (second compound 10 µM, first compound 0.0949 µM) 45.2% | viability, T/C (second compound 10 µM, first compound 0.3 µM) 34.9%
165 nM: IC50 [1]

Nc1ncn(C2CC(O)C(CO)O2)c(=O)n1 (centres undefined)
231 nM and 466 nM and 261 nM: IC50 (curve of compound)
inactive: viability, T/C (compound 0.00316 µM) 107% and 86.3% and 88.1% | viability, T/C (compound 0.01 µM) 95.4% and 112% and 100% | viability, T/C (compound 0.0316 µM) 102% and 89.2% and 69.8% | viability, T/C (compound 0.1 µM) 64.2% and 72.3% and 74.5% | viability, T/C (compound 0.316 µM) 50.6% and 52.8% and 43.7% | viability, T/C (compound 1 µM) 37% and 45.7% and 25.6%

COc1ccc([C@@H](O)c2cc(-c3ncnc4cc(N5CCOCC5)ccc34)c(F)cc2Cl)nn1 + Cc1cncc(-c2nc(NCCc3c[nH]c4ccccc34)c3ncn(C(C)C)c3n2)c1
active: viability, T/C [37] 5.31% | viability, T/C [39] 5.39% | viability, T/C [41] 5.3% | viability, T/C [43] 4.69% | viability, T/C [35] 7.45% | viability, T/C [44] 5.7% | viability, T/C [45] 3.93%
687 nM: IC50 [3]
365 nM: IC50 [4]
1080 nM: IC50 [1]
< 31.6 nM: IC50 [5]
inactive: viability, T/C [8] 83.7% | viability, T/C [9] 75.9% | viability, T/C [10] 75.9% | viability, T/C [11] 49.9% | viability, T/C [36] 24.6% | viability, T/C [14] 76.3% | viability, T/C [15] 69.3% | viability, T/C [16] 59.9% | viability, T/C [17] 42.6% | viability, T/C [38] 20.3% | viability, T/C [20] 68% | viability, T/C [21] 62.3% | viability, T/C [22] 61.8% | viability, T/C [23] 44.6% | viability, T/C [40] 17.4% | viability, T/C [26] 71.8% | viability, T/C [27] 67.6% | viability, T/C [28] 46% | viability, T/C [29] 42.1% | viability, T/C [42] 16.2% | viability, T/C [32] 18.4% | viability, T/C [33] 16.3% | viability, T/C [34] 13.7%
592 nM: IC50 [2]

Nc1ncn(C2CC(O)C(CO)O2)c(=O)n1 (centres undefined) + Cc1cncc(-c2nc(NCCc3c[nH]c4ccccc34)c3ncn(C(C)C)c3n2)c1
80.4 nM: IC50 [3]
264 nM: IC50 [2]
inactive: viability, T/C [6] 83% | viability, T/C [7] 89.2% | viability, T/C [8] 81.4% | viability, T/C [9] 54.7% | viability, T/C [10] 48.8% | viability, T/C [11] 28.1% | viability, T/C [12] 75.5% | viability, T/C [13] 86.1% | viability, T/C [14] 78.2% | viability, T/C [15] 55.6% | viability, T/C [16] 52.1% | viability, T/C [17] 27.9% | viability, T/C [18] 73% | viability, T/C [19] 82.7% | viability, T/C [20] 68% | viability, T/C [21] 45.3% | viability, T/C [22] 45.9% | viability, T/C [23] 33.3% | viability, T/C [24] 71.4% | viability, T/C [25] 72% | viability, T/C [26] 69.2% | viability, T/C [27] 70.2% | viability, T/C [28] 53.7% | viability, T/C [29] 38% | viability, T/C [30] 25.7% | viability, T/C [31] 26.9% | viability, T/C [32] 21.3% | viability, T/C [33] 19.5% | viability, T/C [34] 20.1% | viability, T/C [35] 18.9%
< 3.16 nM: IC50 [5]
206 nM: IC50 [1]
481 nM: IC50 [4]

O=C(C=Cn1cnc(-c2cc(C(F)(F)F)cc(C(F)(F)F)c2)n1)NNc1cnccn1
inactive: viability, T/C (compound 0.00949 µM) 92.3% and 73.3% and 75.8% | viability, T/C (compound 0.03 µM) 77.8% and 68.4% and 79.9% | viability, T/C (compound 0.0949 µM) 61.5% and 30% and 30.5%
122 nM and 51.9 nM and 59 nM: IC50 (curve of compound)
12.5% and 17.1% and 6.76%: viability, T/C (compound 0.3 µM)
active: viability, T/C (compound 0.949 µM) 8.28% and 8.73% and 4.72% | viability, T/C (compound 3 µM) 6.13% and 7.12% and 2.87%
